{
  "source": "paper PMC7143421",
  "about": "(Marine Drugs, 2020)",
  "key": {"human NR2B [1]": {"target": "T1, human NR2B (Homo sapiens, UniProt Q13224)", "T1 sequence (Q13224 whole entry, looked up)": "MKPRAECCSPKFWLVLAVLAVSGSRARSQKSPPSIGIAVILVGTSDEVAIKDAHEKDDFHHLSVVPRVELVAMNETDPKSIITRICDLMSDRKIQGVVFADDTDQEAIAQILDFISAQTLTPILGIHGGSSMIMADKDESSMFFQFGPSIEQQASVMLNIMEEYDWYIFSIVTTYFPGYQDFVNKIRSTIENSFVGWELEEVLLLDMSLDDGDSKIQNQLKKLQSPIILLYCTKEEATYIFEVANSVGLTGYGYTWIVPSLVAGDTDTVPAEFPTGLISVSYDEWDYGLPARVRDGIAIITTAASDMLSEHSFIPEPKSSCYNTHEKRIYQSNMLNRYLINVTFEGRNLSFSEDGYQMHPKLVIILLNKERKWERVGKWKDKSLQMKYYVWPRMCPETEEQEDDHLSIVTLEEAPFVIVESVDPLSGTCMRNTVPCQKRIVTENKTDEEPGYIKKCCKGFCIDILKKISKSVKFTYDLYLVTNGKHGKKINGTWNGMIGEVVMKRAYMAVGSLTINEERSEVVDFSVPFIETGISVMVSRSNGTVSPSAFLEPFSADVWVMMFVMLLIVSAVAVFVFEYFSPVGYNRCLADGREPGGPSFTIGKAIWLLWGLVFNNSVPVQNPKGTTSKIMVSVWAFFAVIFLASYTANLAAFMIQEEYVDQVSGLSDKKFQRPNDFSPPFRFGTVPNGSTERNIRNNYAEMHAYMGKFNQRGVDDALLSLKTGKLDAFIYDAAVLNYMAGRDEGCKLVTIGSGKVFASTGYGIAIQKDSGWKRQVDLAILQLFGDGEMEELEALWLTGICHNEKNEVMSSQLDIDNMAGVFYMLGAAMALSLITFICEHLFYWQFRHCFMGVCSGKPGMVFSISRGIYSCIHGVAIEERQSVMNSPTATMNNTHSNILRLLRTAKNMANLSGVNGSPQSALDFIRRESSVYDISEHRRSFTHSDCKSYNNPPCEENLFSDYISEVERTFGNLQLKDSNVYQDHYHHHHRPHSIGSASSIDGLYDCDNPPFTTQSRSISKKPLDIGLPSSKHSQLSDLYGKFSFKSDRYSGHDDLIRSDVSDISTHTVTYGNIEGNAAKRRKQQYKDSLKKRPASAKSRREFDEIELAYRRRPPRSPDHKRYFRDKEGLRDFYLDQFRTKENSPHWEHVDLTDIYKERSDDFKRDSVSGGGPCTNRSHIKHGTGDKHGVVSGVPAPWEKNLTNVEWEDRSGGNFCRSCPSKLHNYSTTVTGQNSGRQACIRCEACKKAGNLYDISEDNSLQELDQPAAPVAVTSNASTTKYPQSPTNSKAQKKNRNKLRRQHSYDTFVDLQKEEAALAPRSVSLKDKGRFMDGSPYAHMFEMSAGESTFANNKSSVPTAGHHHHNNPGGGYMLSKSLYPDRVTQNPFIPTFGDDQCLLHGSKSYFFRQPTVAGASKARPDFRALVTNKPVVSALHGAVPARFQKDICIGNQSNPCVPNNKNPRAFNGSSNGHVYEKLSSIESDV"}, "NR2A": {"target": "NR2A (Homo sapiens, UniProt Q12879)", "sequence (Q12879 whole entry, looked up)": "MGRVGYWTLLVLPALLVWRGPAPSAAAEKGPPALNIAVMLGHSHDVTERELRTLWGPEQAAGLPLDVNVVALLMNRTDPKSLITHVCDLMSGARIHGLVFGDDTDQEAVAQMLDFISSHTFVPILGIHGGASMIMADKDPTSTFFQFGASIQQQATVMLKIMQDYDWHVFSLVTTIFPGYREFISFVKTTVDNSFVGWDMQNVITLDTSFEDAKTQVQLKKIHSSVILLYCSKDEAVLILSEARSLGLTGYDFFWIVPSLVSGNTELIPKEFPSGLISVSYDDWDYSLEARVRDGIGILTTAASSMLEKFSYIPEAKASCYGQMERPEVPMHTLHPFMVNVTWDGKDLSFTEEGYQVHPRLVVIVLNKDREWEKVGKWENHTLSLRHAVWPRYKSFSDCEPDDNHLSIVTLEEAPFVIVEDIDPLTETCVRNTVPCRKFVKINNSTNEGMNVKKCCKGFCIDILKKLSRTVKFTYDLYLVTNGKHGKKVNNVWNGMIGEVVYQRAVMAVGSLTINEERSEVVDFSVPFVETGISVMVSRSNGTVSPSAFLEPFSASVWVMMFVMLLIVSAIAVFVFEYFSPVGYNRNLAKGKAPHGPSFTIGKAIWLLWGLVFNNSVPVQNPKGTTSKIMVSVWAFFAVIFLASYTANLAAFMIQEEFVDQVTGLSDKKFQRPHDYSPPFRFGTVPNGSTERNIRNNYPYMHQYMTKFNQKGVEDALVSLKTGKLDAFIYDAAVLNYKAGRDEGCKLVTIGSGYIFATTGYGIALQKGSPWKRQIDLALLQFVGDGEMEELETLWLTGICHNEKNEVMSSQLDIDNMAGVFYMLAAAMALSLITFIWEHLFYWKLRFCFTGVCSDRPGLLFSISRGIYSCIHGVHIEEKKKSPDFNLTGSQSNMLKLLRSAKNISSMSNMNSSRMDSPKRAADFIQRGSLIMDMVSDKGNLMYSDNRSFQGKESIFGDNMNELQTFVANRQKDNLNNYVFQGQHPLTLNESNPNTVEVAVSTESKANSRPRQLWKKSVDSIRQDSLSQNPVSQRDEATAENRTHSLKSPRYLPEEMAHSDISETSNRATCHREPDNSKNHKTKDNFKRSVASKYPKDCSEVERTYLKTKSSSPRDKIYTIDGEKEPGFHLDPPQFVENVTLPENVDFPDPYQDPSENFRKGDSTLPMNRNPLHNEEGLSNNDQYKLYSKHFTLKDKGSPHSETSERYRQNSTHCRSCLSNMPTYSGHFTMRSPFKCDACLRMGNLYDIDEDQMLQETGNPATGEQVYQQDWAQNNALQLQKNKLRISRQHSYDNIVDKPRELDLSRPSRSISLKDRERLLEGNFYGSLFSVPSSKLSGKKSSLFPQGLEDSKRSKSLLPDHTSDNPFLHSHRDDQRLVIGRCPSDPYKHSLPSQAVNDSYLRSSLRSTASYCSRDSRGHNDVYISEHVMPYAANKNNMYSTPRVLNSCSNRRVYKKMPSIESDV", "assay_type": "cell-based"}, "human NR2B [2]": {"target": "T1, human NR2B", "test": "cell-based"}},
  "note": "Square brackets hold non-standard residues; d marks the D form. Peptide text beside a SMILES is read from it. Hyp = O=C(O)[C@@H]1C[C@@H](O)CN1",
  "data": [
    {"smiles": "CC(C)C[C@H](NC(=O)[C@H](Cc1ccc(O)cc1)NC(=O)[C@H](Cc1ccc(O)cc1)NC(=O)[C@@H](N)CC(N)=O)C(=O)N[C@@H](Cc1ccc(O)cc1)C(=O)N1C[C@H](O)C[C@H]1C(=O)N[C@@H](C)C(=O)N[C@@H](CCCNC(=N)N)C(=O)N1C[C@H](O)C[C@H]1C(=O)N[C@@H](CCC(=O)O)C(=O)N[C@@H](CC(N)=O)C(=O)N[C@@H](CO)C(=O)N[C@H](Cc1c[nH]c2ccccc12)C(=O)N[C@@H](Cc1c[nH]c2ccccc12)C(=O)N[C@H](C(=O)O)[C@@H](C)O", "note": "[conotoxin-Ac1] (H-NYYLY[Hyp]AR[Hyp]ENS[dW]WT-OH)", "values": [
      {"measurement": "The Inhibition of Currents (%) NR2B", "setting": "human NR2B [1]", "result": 51.69, "unit": "%"},
      {"measurement": "The Inhibition of Currents (%) NR2A", "setting": "NR2A", "result": 7.22, "unit": "%"},
      {"measurement": "IC50", "setting": "human NR2B [2]", "result": "8.22 ± 0.022", "unit": "µM"}
    ]}
  ]
}
